From PubChem BioAssay (NCI)
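Results reflect a 48-hour exposure of cells in 96-well plates to compound at five concentrations. GI50 = concentration required for 50% inhibition of growth. The concentration for full growth arrest is given as TGI.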

What was measured:
Experiment in all cases: inhibition of tumour cell growth, NCI panel, 48 h
T-47D breast = system: T-47D breast
PC-3 prostate = system: PC-3 prostate
NCI/ADR-RES ovarian = system: NCI/ADR-RES ovarian
MDA-MB-435 = system: MDA-MB-435
MDA-MB-231 breast = system: MDA-MB-231 breast
M19-MEL melanoma = system: M19-MEL melanoma
KM20L2 colon = system: KM20L2 colon
LXFL 529 NSCLC = system: LXFL 529 NSCLC
SNB-78 CNS = system: SNB-78 CNS
DLD-1 colon = system: DLD-1 colon

| SMILES | GI50 (T-47D breast) | TGI (T-47D breast) | GI50 (PC-3 prostate) | TGI (PC-3 prostate) | GI50 (NCI/ADR-RES ovarian) | TGI (NCI/ADR-RES ovarian) | GI50 (MDA-MB-435) | TGI (MDA-MB-435) | GI50 (MDA-MB-231 breast) | TGI (MDA-MB-231 breast) | TGI (M19-MEL melanoma) | TGI (KM20L2 colon) | TGI (LXFL 529 NSCLC) | TGI (SNB-78 CNS) | TGI (DLD-1 colon) |
| --- | --- | --- | --- | --- | --- | --- | --- | --- | --- | --- | --- | --- | --- | --- | --- |
| CN=C1NC(=O)/C(=C/c2ccc3ncccc3c2)S1 | 5.24 µM | 24.4 µM | 13.8 µM | > 25 µM | 13.9 µM | > 25 µM | 4.06 µM | > 25 µM | 18.5 µM | > 25 µM |  |  |  |  |  |
| O=C1c2ccccc2C(=O)c2c1ccc1[nH]c(CCl)nc21 | 1.96 µM | 4.37 µM | 2.23 µM | 7.01 µM | 2.76 µM | 10.4 µM | 3.37 µM | 11.8 µM | 3.74 µM | 15.3 µM |  |  |  |  |  |
| Cn1cc(C2=C(c3ccc(OC[C@@H](O)CO)cc3)C(=O)NC2=O)c2ccccc21 | > 25 µM | > 25 µM | > 25 µM | > 25 µM | > 25 µM | > 25 µM | > 25 µM | > 25 µM | > 25 µM | > 25 µM |  |  |  |  |  |
| CCN1CCN(c2nc(NCCNc3ccnc4cc(Cl)ccc34)c3ccccc3n2)CC1 | 1.92 µM | 4.42 µM | 2.4 µM | 15.7 µM | 4.57 µM | 25.8 µM | 1.64 µM | 3.14 µM | 1.28 µM | 2.88 µM |  |  |  |  |  |
| CCCCCCCCCCCCOC1C(CNCC2OC3OC(C)(C)OC3C2NC(=O)Nc2ccc(C(=O)OCC)cc2)OC2OC(C)(C)OC21 (stereo not given) | 2.68 µM | 7.1 µM | 2.21 µM | 4.39 µM | 2.19 µM | 4.35 µM | 1.9 µM | 3.8 µM | 1.77 µM | 3.33 µM |  |  |  |  |  |
| O=C(O)Cc1c[nH]c2ccc(F)cc12 |  | > 100 µM |  | > 100 µM |  | > 100 µM |  | > 100 µM |  | > 100 µM |  |  |  |  |  |
| CNC(=O)c1cc(Oc2ccc3c(c2)sc2nc(-c4ccc(N)cc4)cn23)ccn1 | 0.397 µM | 57.6 µM | 0.324 µM | > 100 µM | 0.211 µM | > 100 µM |  |  | 0.726 µM | > 100 µM |  |  |  |  |  |
| C[C@@H]1Cc2c([nH]c3ccccc23)[C@@H](c2c(F)cc(/C=C/C(=O)O)cc2F)N1CC(C)(C)F | 0.0916 µM | 51.3 µM | 10.2 µM | 27.4 µM | 14.7 µM | 36.5 µM | 14 µM | 31 µM | 18.4 µM | 38 µM |  |  |  |  |  |
| OCCNCO |  |  |  |  |  |  |  |  |  |  | > 100 µM | > 100 µM | > 100 µM | > 100 µM |  |
| C#CC(C)(C)Oc1cc(O)c2c(=O)c3ccccc3n(C)c2c1 |  |  |  |  |  |  |  |  |  |  |  | > 100 µM | > 100 µM | > 100 µM |  |
| COc1cc2c(NCCCCCCO[N+](=O)[O-])ncnc2c(OC)c1OC |  | > 93.2 µM |  | 63.4 µM |  | 51.3 µM |  | 42.3 µM |  | 38 µM |  |  |  |  |  |
| CC[n+]1ccc2c(c1)C(=O)c1nccc3c1c-2nc1ccccc13 | 2.2 µM | 9.19 µM | 1.81 µM | 16.2 µM | > 27.7 µM | > 33.3 µM | 2.34 µM | 7.24 µM | 2.17 µM | 14 µM |  |  |  |  |  |
| O=[n+]1c(CBr)c(CBr)n([O-])c2ccccc21 | 2.58 µM | 6.8 µM | 13.4 µM | 31.1 µM | 14.5 µM | 33.7 µM | 12 µM | 25 µM | 11.9 µM | 24.5 µM |  |  |  |  |  |
| CN1CCN(Cc2ccc(NC(=O)c3cncc(C#Cc4cnc(N)c5ccccc45)c3)cc2C(F)(F)F)CC1 | 1.01 µM | 4.11 µM | 0.442 µM | 1.36 µM | 0.556 µM | 1.21 µM | 0.348 µM | 0.783 µM | 0.369 µM | 0.82 µM |  |  |  |  |  |
| N#Cc1c(O)c2c(c(O)c1C#N)C(=O)c1ccccc1C2=O | 2.71 µM | 9.2 µM | 1.57 µM | 7.01 µM | 2.12 µM | 7.25 µM |  |  | 2.01 µM | 9.55 µM |  |  |  |  |  |
| Cc1c(Cl)cccc1Nc1ncccc1C(=O)O | 68 µM | > 100 µM | 52.3 µM | > 100 µM | 78.7 µM | > 100 µM | 82.9 µM | > 100 µM | 92.3 µM | > 100 µM |  |  |  |  |  |
| ClCc1ccccc1CSc1ncnc2nc[nH]c12 | > 60 µM | > 60 µM | > 60 µM | > 60 µM | > 60 µM | > 60 µM | > 60 µM | > 60 µM | > 60 µM | > 60 µM |  |  |  |  |  |
| COc1ccc(-n2cc(-c3ccc(OC)c(OC)c3)[nH]c2=S)cc1Cl | > 100 µM | > 100 µM | > 100 µM | > 100 µM | > 100 µM | > 100 µM | > 100 µM | > 100 µM | 61.4 µM | > 100 µM |  |  |  |  |  |
| COc1nc2c(cc1S(=O)(=O)c1ccccc1)CCc1c-2cnn1-c1ccccc1Cl |  |  | 3.09 µM | > 100 µM | 8.24 µM | > 100 µM | 8.94 µM | > 100 µM | 5.16 µM | > 100 µM |  |  |  |  |  |
| CC1=C(CCCOC(=O)NCCCl)C2=C(C)C3(CC3)[C@@](C)(O)C(=O)C2=C1 | 3.36 µM | > 100 µM | 4.01 µM | > 100 µM | 2.95 µM | > 100 µM | 5.07 µM | 99.4 µM | 2.56 µM | 8.35 µM |  |  |  |  |  |
| CC1=C2[C@@H](CC1)[C@]1(C)O[C@@](C(C)C)(C[C@H]1OC(=O)[C@H](C)O)[C@H]2OC(=O)/C=C/c1ccccc1 | 5.38 µM | 22.4 µM | 4.46 µM | 19.1 µM | 0.428 µM | 16 µM | 15.5 µM | 30.9 µM | 15.3 µM | 36.4 µM |  |  |  |  |  |
| CCC1CCC2CCCC(C)N12 (stereo not given) |  |  |  |  |  |  |  |  |  |  | > 100 µM | > 100 µM | > 100 µM |  | > 100 µM |
| O=C(Cc1ccc(/C=C/C(=O)c2ncc[nH]2)cc1)Nc1ccc(Cl)cc1 | 3.24 µM | 16.2 µM | 2.39 µM | 7.45 µM | 5.02 µM | > 25 µM | 4.14 µM | > 25 µM | 4.27 µM | 14.9 µM |  |  |  |  |  |
